Source: US20230127839A1, “COMPOUNDS AND COMPOSITIONS FOR TREATING CONDITIONS ASSOCIATED WITH STING ACTIVITY” (IFM Due, Inc., priority 2019, published 2023)

What follows are molecules tested against T1, hSTING (Homo sapiens, UniProt Q86WV6, G230A/H232R/R293Q/R71H) (assay: STING reporter assay (luciferase) in THP1-Dual KO-IFNAR2 cells stimulated with 2'3'cGAMP). Conditions: 2'3'cGAMP 15 μM, 24 h, luciferase reporter activity.
T1 construct: host or cells: THP1-Dual KO-IFNAR2 cells
Type: cell-based
Procedure: STING pathway activation by the compounds described herein is measured using THP1-Dual™ cells (KO-IFNAR2).
THP1-Dual™ KO-IFNAR2 Cells (obtained from invivogen) are maintained in RPMI, 10% FCS, 5 ml P/S, 2 mM L-glut, 10 mM Hepes, and 1 mM sodium pyruvate.
Compounds are spotted in empty 384 well tissue culture plates (Greiner 781182) by Echo for a final concentration of 0.0017-100 μM. Cells are plated into the TC plates at 40 μL per well, 2×10E6 cells/mL. For activation with STING ligand, 2′3′cGAMP (MW 718.38, obtained from Invivogen), is prepared in Optimem media.
The following solutions are prepared for each 1×384 plate: • Solution A: 2 mL Optimem with one of the following stimuli: • 60 uL of 10 mM 2′3′cGAMP->150 μM stock • Solution B: 2 mL Optimem with 60 μL Lipofectamine 2000->Incubate 5 min at RT
2 mL of solution A and 2 ml Solution B is mixed and incubated for 20 min at room temperature (RT). 20 uL of transfection solution (A+B) is added on top of the plated cells, with a final 2′3′cGAMP concentration of 15 μM. The plates are then centrifuged immediately at 340 g for 1 minute, after which they are incubated at 37° C., 5% CO2, >98% humidity for 24 h. Luciferase reporter activity is then measured. EC50 values are calculated by using standard methods known in the art.
Luciferase reporter assay: 10 μL of supernatant from the assay is transferred to white 384-plate with flat bottom and squared wells. One pouch of QUANTI-Luc™ Plus us dissolved in 25 mL of water. 100 μL of QLC Stabilizer per 25 mL of QUANTI-Luc™ Plus solution is added. 50 μL of QUANTI-Luc™ Plus/QLC solution per well is then added. Luminescence is measured on a Platereader (e.g., Spectramax I3X (Molecular Devices GF3637001)).
Luciferase reporter activity is then measured. EC50 values are calculated by using standard methods known in the art.

T1 sequence (Q86WV6 whole entry R71H/G230A/H232R/R293Q): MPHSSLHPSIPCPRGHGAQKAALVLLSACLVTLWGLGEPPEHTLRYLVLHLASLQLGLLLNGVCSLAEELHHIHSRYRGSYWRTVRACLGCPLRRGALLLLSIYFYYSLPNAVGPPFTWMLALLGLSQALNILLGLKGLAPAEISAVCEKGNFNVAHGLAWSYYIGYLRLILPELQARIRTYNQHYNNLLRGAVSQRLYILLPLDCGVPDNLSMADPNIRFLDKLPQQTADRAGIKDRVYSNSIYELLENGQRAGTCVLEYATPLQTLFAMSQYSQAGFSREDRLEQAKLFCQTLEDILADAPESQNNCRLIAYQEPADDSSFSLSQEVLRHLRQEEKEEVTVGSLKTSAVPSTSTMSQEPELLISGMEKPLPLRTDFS

EC50 | Compound
40 to 200 nM | O=C(Nc1ccc(N2CC3(C2)CC(F)(F)C3)nc1)Nc1c[nH]c2ccc(Cl)cc12 [Compound 155, 1-(5-chloro-1H-indol-3-yl)-3-(6-(6,6-difluoro-2-azaspiro[3.3]heptan-2-yl)pyridin-3-yl)urea]
40 to 200 nM | Cc1cc(NC(=O)Nc2c[nH]c3ccc(Cl)cc23)cnc1C1CCC(F)(F)CC1 [Compound 156, 1-(5-chloro-1H-indol-3-yl)-3-(6-(4,4-difluorocyclohexyl)-5-methylpyridin-3-yl)urea]
40 to 200 nM | O=C(Nc1cnc(C2CCC(F)(F)CC2)c(Cl)c1)Nc1c[nH]c2ccc(Cl)cc12 [Compound 157, 1-(5-chloro-1H-indol-3-yl)-3-(5-chloro-6-(4,4-difluorocyclohexyl)pyridin-3-yl)urea]
200 to 1000 nM | C[C@@H]1CN(c2ncc(NC(=O)Nc3c[nH]c4cc(F)c(F)cc34)cc2Cl)CCO1 [Compound 158, (R)-1-(5-chloro-6-(2-methylmorpholino)pyridin-3-yl)-3-(5,6-difluoro-1H-indol-3-yl)urea]
40 to 200 nM | O=C(Nc1cnc(C2CCC(F)(F)CC2)c(Cl)c1)Nc1c[nH]c2ccc(C(F)F)cc12 [Compound 159, 1-(5-chloro-6-(4,4-difluorocyclohexyl)pyridin-3-yl)-3-(5-(difluoromethyl)-1H-indol-3-yl)urea]
> 30000 nM | Cc1cc(NC(=O)Nc2c[nH]c3cc(F)c(F)cc23)cnc1N1CC2(COC2)C1 [Compound 160, 1-(5,6-difluoro-1H-indol-3-yl)-3-(5-methyl-6-(2-oxa-6-azaspiro[3.3]heptan-6-yl)pyridin-3-yl)urea]
5000 to 100000 nM | Cc1cc(NC(=O)Nc2c[nH]c3cc(F)c(F)cc23)cnc1N1CC2(CC(O)C2)C1 [Compound 161, 1-(5,6-difluoro-1H-indol-3-yl)-3-(6-(6-hydroxy-2-azaspiro[3.3]heptan-2-yl)-5-methylpyridin-3-yl)urea]
200 to 1000 nM | Cc1cc(NC(=O)Nc2c[nH]c3cc(F)c(F)cc23)cnc1N1CC(F)(F)C1 [Compound 162, 1-(5,6-difluoro-1H-indol-3-yl)-3-(6-(3,3-difluoroazetidin-1-yl)-5-methylpyridin-3-yl)urea]
40 to 200 nM | N#Cc1cc(NC(=O)Nc2c[nH]c3cc(F)c(F)cc23)cnc1N1CCC(F)(F)CC1 [Compound 163, 1-(5-cyano-6-(4,4-difluoropiperidin-1-yl)pyridin-3-yl)-3-(5,6-difluoro-1H-indol-3-yl)urea]
1000 to 5000 nM | Cc1cc(NC(=O)Nc2c[nH]c3ccc(CCO)cc23)cnc1N1CCC(F)(F)CC1 [Compound 164, 1-(6-(4,4-difluoropiperidin-1-yl)-5-methylpyridin-3-yl)-3-(5-(2-hydroxyethyl)-1H-indol-3-yl)urea]
200 to 1000 nM | O=C(Nc1cnc(N2CCOCC2)c(Cl)c1)Nc1c[nH]c2cc(F)c(F)cc12 [Compound 165, 1-(5-chloro-6-morpholinopyridin-3-yl)-3-(5,6-difluoro-1H-indol-3-yl)urea]
200 to 1000 nM | Cc1cc(NC(=O)Nc2c[nH]c3cc(F)c(F)cc23)cnc1C1CCN(CC(F)(F)F)CC1 [Compound 166, 1-(5,6-difluoro-1H-indol-3-yl)-3-(5-methyl-6-(1-(2,2,2-trifluoroethyl)piperidin-4-yl)pyridin-3-yl)urea]
200 to 1000 nM | Cc1cc(NC(=O)Nc2c[nH]c3cc(F)c(F)cc23)cnc1N1CC2(C1)CC(F)(F)C2 [Compound 167, 1-(5,6-difluoro-1H-indol-3-yl)-3-(6-(6,6-difluoro-2-azaspiro[3.3]heptan-2-yl)-5-methylpyridin-3-yl)urea]
200 to 1000 nM | COc1cc(NC(=O)Nc2c[nH]c3cc(F)c(F)cc23)cnc1N1CC(F)(F)C1 [Compound 168, 1-(5,6-difluoro-1H-indol-3-yl)-3-(6-(3,3-difluoroazetidin-1-yl)-5-methoxypyridin-3-yl)urea]
200 to 1000 nM | Cc1cc(NC(=O)Nc2c[nH]c3cc(F)c(F)cc23)cnc1C1CCOCC1 [Compound 169, 1-(5,6-difluoro-1H-indol-3-yl)-3-(5-methyl-6-(tetrahydro-2H-pyran-4-yl)pyridin-3-yl)urea]
